Like-named read-outs stand apart in the source and are kept apart here.
What was measured:
Test in all cases: Sulforhodamine B (SRB) cytotoxicity test
Type in all cases: cell-based
[1] = tested on: MCF-7 (Breast Cancer); details: cells cultured 3 days with compound, read-out: Half Inhibitory Concentration for Tumor Cell Growth (IC50)
Experimental: (§1) Sulforhodamine B (SRB) test was used for screening the selective compounds of the present invention according to their anti-tumor activity on four different tumor cell lines. In SRB analysis, the cultured cells were trypsinized, counted and diluted to a suitable concentration (5000-7500 cells/100 μl) with a culture medium. The cells were inoculated into a 96-well microtiter plate at 100 μl suspension/well. After 20 hours, the test compounds which were diluted in the culture medium to 2×1000 nM˜2×0.001 nM were added to each well. The cells were then cultured for 3 days, fixed with 100 μl 10% trichloroacetic acid at 4° C. for 1 hour, and then stained with 0.2% SRB/1% acetic acid at room temperature for 20 min. The unbound dye was rinsed with 1% acetic acid. The bound dye was dissolved with 200 μl 10 mM Tris-base. The amount of the bound dye was calculated from OD value detected at the wavelength of 515 nm. The amount of the bound dye was in direct proportion to the total amount of cell proteins. The data was analyzed with Kaleida Graph program, and the half inhibitory concentration (IC50) was calculated. Epothilones D and B were detected in parallel for Comparison. The results of the cytotoxicity experiments on the selected test compounds of the present invention are shown as follows. The other compounds of the present invention may also be detected with a similar method.

[2] = tested on: NCI/ADR-RES (MDR Breast Cancer); details: cells cultured 3 days with compound, read-out: Half Inhibitory Concentration for Tumor Cell Growth (IC50)
Experimental: as §1

[3] = tested on: NCl-H460 (Lung Cancer); details: cells cultured 3 days with compound, read-out: Half Inhibitory Concentration for Tumor Cell Growth (IC50)
Experimental: as §1

[4] = tested on: SF-268 (Glioma); details: cells cultured 3 days with compound, read-out: Half Inhibitory Concentration for Bacterial Growth (IC50)
Experimental: as §1

Compound	IC50 [1] [nM]	IC50 [2] [nM]	IC50 [3] [nM]	IC50 [4] [nM]	IC50 ([1]; Homo sapiens, MCF7, 72 h) [nM]	IC50 ([2]; Homo sapiens, 72 h) [nM]	IC50 ([3]; 72 h) [nM]	IC50 ([4]; Homo sapiens, 72 h) [nM]
C/C(=C\c1csc(C)n1)[C@@H]1C[C@@H]2O[C@]2(C)CCC[C@H](C)[C@H](O)[C@@H](C)C(=O)C(C)(C)[C@@H](O)CC(=O)O1 [Epo B, Epothilone B, reference compound]	0.5	5	0.7	0.8				
C/C1=C/C[C@@H](/C(C)=C/c2csc(C)n2)OC(=O)C[C@H](O)C(C)(C)C(=O)[C@H](C)[C@@H](O)[C@@H](C)CCC1 [Epo D, Epothilone D, reference compound]	13	42	17	18				
14-NH2 Epothilone D [II-A]	7	12	7	6				
14-NH2 Epothilone B [II-B]	0.1	0.5	0.2	0.2				
COC1/C=C(/C)CCC[C@H](C)[C@H](O)[C@@H](C)C(=O)C(C)[C@@H](O)CC(=O)O[C@@H]1/C(C)=C/c1csc(C)n1 (stereo partly drawn) [II-N]					2	7	2	3
14-N(CH3)2 Epothilone B [II-L]	0.05	0.1	0.5	1				

From US8895590B2, “Epothilone compounds, preparation method and use thereof” (priority 2010, dated 2014)
